Patent US10800789B2, “Antiviral compounds” (Gilead Pharmasset LLC, priority 2012, dated 2020)
Where two headings read alike, the source gives them in different places.

Legend:
[1] = tested on: NS5A chimeric genotype 1b Con1 replicon with genotype 4a ED43 strain NS5A gene; assay: Replicon assay, genotype 4a NS5A chimera; format: cell-based, HCV; conditions: Hepatitis C virus
[2] = tested on: stable HCV 1a RLuc replicon cells (dicistronic genotype 1a H77 replicon); assay: Renilla luciferase HCV replicon reporter assay, genotype 1a; format: cell-based; conditions: Hepatitis C virus, 72 h, stable 1a H77 RLuc replicon cells
In short: (§1)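 First, 3-fold serial dilutions of compound went onto replicon cells, DMSO serving as no-inhibition control and ITMN-191 at >100×EC50 as positive control. Next came 72 h incubation, lysis and Renilla luciferase measurement. Finally, EC50 was calculated by non-linear regression; replicons covered genotypes 1a H77, 1b Con1, 2a JFH-1 (L31) and J6-NS5A chimera (M31).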

[3] = tested on: NS5A chimeric genotype 1b Con1 replicon with genotype 3a S52 strain NS5A gene; assay: Replicon assay, genotype 3a NS5A chimera; format: cell-based, HCV; conditions: Hepatitis C virus
[4] = tested on: stable HCV 2a JFH-1 Rluc replicon cells (L31 present in NS5A); assay: Renilla luciferase HCV replicon reporter assay, genotype 2a JFH-1; format: cell-based; conditions: Hepatitis C virus
In short: as §1

[5] = tested on: NS5A chimeric genotype 2a JFH-1 replicon with genotype 2b MD2b-1 strain NS5A gene (M31 present); assay: Replicon assay, genotype 2b NS5A chimera; format: cell-based, HCV; conditions: Hepatitis C virus
In short: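 EC50 was fitted by non-linear regression to Renilla luciferase signal after 72 h of exposure to 3-fold serially diluted compound (10 mM DMSO stocks). Controls were DMSO (none) and ITMN-191 above 100×EC50 (full). Chimeric 2a replicons were used either stable or transiently transfected into Huh-Lunet cells.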

[6] = IV and PO single dose pharmacokinetic studies in SD rats; format: in vivo, male Sprague-Dawley (SD) rats; conditions: Sprague-Dawley, rat, plasma, male SD rats, PO 2 mg/kg vs IV infusion 1 mg/kg, read-out: Rat % F
Method: IV and PO Single Dose Pharmacokinetic Studies in SD Rats:
The pharmacokinetics of selected compounds was characterized in male Sprague-Dawley (SD) rats (250-300g). In this study, two groups of naïve purebred SD rats (N=3 per group, fasted over night) received the selected compound either as an intravenous (IV) infusion (1 mg/kg over 30 minutes) via the jugular vein or by oral gavage (2 mg/kg). The intravenous (IV) dosing vehicle was 5% ethanol, 35% polyethylene glycol 400 (PEG 400) and 60% water pH 2.0. The oral dosing vehicle was 5% ethanol, 55% PEG 400 and 40% citrate buffer pH 2.2.
Serial blood samples (approximately 0.3 mL each) were collected from jugular vein or other suitable vein at specified time points. For the IV infusion group, the blood samples were collected predose and at 0.25, 0.48, 0.58, 0.75, 1.5, 3, 6, 8, 12 and 24 hours after the start of infusion. For the oral group, the blood samples were collected predose and at 0.25, 0.50, 1, 2, 4, 6, 8, 12 and 24 hours after dosing. The blood samples were collected into VacutainerγM tubes containing EDTA-K3 as the anti-coagulant and were centrifuged at approximately 4° C. to obtain plasma. The plasma samples were stored at −20° C. until analysis by LC/MS/MS.
A bioanalytical method utilizing high performance liquid chromatography coupled to tandem mass spectrometry (LC/MS/MS) was developed for analysis of the selected compound in rat plasma. Detection was performed using selected reaction monitoring (SRM); Ions representing the precursor (M+H)^+ species was selected in quadrupole 1 (Q1) and collided with argon gas in the collision cell (Q2) to generate specific product ion, which was subsequently monitored by quadrupole 3 (Q3). Standard curve and quality control samples were prepared in male rat plasma and processed in the same way as the test samples to generate quantitative data.
Pharmacokinetic parameters were generated using non-compartmental pharmacokinetic analysis (Phoenix WinNonlin, version 6.3). Values below the lower limit of quantification (LLOQ) were assigned a value of zero if predose and treated as missing thereafter. Area under the curve (AUC) was calculated using the linear trapezoidal rule. The oral bioavailability (% F) was determined by comparison of the area under the curve (AUC) of the compound and/or a metabolite generated in plasma following oral administration to that generated following intravenous administration.

[7] = tested on: stable HCV 1b RLuc replicon cells (dicistronic genotype 1b Con1 replicon); assay: Renilla luciferase HCV replicon reporter assay, genotype 1b; format: cell-based; conditions: Hepatitis C virus, 72 h, stable 1b Con1 RLuc replicon cells, 72 hours; read-out: 1b
In short: as §1

[8] = tested on: NS5A chimeric genotype 2a JFH-1 replicon with genotype 2a J6 strain NS5A gene (M31 present); assay: Replicon assay, genotype 2a J6 NS5A chimera; format: cell-based, HCV; conditions: Hepatitis C virus
In short: as §1

[9] = tested on: Q30R in genotype 1a NS5A (1a Pi-Rluc replicon, Huh-7-derived cured-51 cells); assay: Replicon assay against resistance mutant 1a Q30R; format: cell-based, HCV; conditions: Hepatitis C virus
Method: Antiviral potency (EC50) was determined using a Renilla luciferase (RLuc)-based HCV replicon reporter assay. To perform the assay for genotype 1 and 2a JFH-1, stable HCV 1a RLuc replicon cells (harboring a dicistronic genotype 1a H77 replicon that encodes a RLuc reporter), stable HCV 1b RLuc replicon cells (harboring a dicistronic genotype 1b Con1 replicon that encodes a RLuc reporter), or stable HCV 2a JFH-1 Rluc replicon cells (harboring a dicistronic genotype 2a JFH-1 replicon that encodes a RLuc reporter; with L31 present in NS5A) were dispensed into 384-well plates for EC50 assays. To perform the assay for genotype 2a (with M31 present in NS5A) or 2b, NS5A chimeric genotype 2a JFH-1 replicons that encodes a RLuc-Neo reporter and either genotype 2a J6 strain NS5A gene or genotype 2b MD2b-1 strain NS5A gene (both with M31 present) respectively, were either transiently transfected (t) into Huh-Lunet cells or were established as stably replicating replicon cells (s) is provided. Either cells were dispensed into 384-well plates for EC50 assays. To perform the assay for genotype 3 and 4, NS5A chimeric genotype 1b Con1 replicons that encodes a Pi-RLuc reporter and either genotype 3a S52 strain NS5A gene or genotype 4a ED43 strain NS5A gene respectively, were transiently transfected (t) into Huh-Lunet cells, which were subsequently dispensed into 384-well plates. Compounds were dissolved in DMSO at a concentration of 10 mM and diluted in DMSO either manually or using an automated pipeting instrument. Serially 3-fold diluted compounds were either manually mixed with cell culture media and added to the seeded cells or directly added to the cells using an automated instrument. DMSO was used as a negative (solvent; no inhibition) control, and the protease inhibitor ITMN-191 was included at a concentration>100×EC50 as a positive control. 72 hours later, cells were lysed and Renilla luciferase activity quantified as recommended by the manufacturer (Promega-Madison, Wis.). Non-linear regression was performed to calculate EC50 values.
To determine the antiviral potency (EC50) against resistance mutants, resistance mutations, including M28T, Q30R, Q30H, Q30E, L31M, Y93C, Y93H, and Y93N in genotype 1a NS5A, Y93H and L31V/Y93H in genotype 1b NS5A, and Y93H for in genotype 3a NS5A, were introduced individually into either 1a Pi-Rluc or 1b Pi-Rluc replicons by site directed mutagenesis. Replicon RNA of each resistant mutant was transiently transfected into Huh-7-derived cured-51 cells and antiviral potency was determined on these transfected cells as described above.

[10] = read-out: 4a (s) (nM), genotype 4a NS5A chimeric replicon, stable replicon cells (s)
[11] = read-out: 4a (s), (s), activity range
[12] = read-out: 3a (s) (nM), genotype 3a NS5A chimeric replicon, stable replicon cells (s)
[13] = read-out: 3a (s), (s), activity range
[14] = read-out: 2a JFH (nM), genotype 2a JFH-1 replicon (L31 in NS5A), stable cells
[15] = read-out: 2a JFH, stable 2a JFH-1 Rluc replicon cells, L31 in NS5A, activity range
[16] = 2BS, read-out: 2b (s), stably replicating replicon cells (s), activity range
[17] = read-out: 2b (s) (nM), genotype 2b MD2b-1 NS5A chimeric replicon (M31), stably replicating replicon cells (s)
[18] = read-out: 3a (t) (nM), genotype 3a NS5A chimeric replicon, transiently transfected (t)
[19] = read-out: 3a (t), transiently transfected (t) into Huh-Lunet cells, activity range
[20] = read-out: 2a J6 (t) (nM), genotype 2a J6 NS5A chimeric replicon (M31), transiently transfected (t) into Huh-Lunet cells
[21] = read-out: 2a J6 (t), transiently transfected (t) into Huh-Lunet cells, activity range

Row | SMILES | EC50 [1, 10] [nM] | EC50 [1, 11] [nM] | EC50 [2] [pM] | EC50 ([2]; activity range) [pM] | EC50 [3, 12] [nM] | EC50 [3, 13] [nM] | EC50 [4, 14] [nM] | EC50 [4, 15] [nM] | EC50 [5, 16] [nM] | EC50 [5, 17] [nM] | bioavailability [6] [%] | EC50 [7] [pM] | EC50 [3, 18] [nM] | EC50 [3, 19] [nM] | EC50 ([5]; read-out: 2b (t) (nM), genotype 2b MD2b-1 NS5A chimeric replicon (M31), transiently transfected (t)) [nM] | EC50 ([5]; read-out: 2b (t), transiently transfected (t) into Huh-Lunet cells, activity range) [nM] | EC50 [8, 20] [nM] | EC50 [8, 21] [nM] | EC50 ([9]; read-out: 1a Q30R) [nM] | EC50 ([9]; read-out: 1a Q30R (nM)) [nM]
1 | COC(=O)N[C@H](C(=O)N1[C@@H](C)CC[C@H]1c1ncc(-c2ccc3c(c2)COc2cc4c(ccc5nc([C@@H]6CC[C@H](C)N6C(=O)[C@@H](NC(=O)OC)[C@@H](C)OC(F)F)[nH]c54)cc2-3)[nH]1)C(C)C [FM, Methyl {(2S)-1-[(2S,5S)-2-(5-{2-[(2S,5S)-1-{(2S,3R)-3-(difluoromethoxy)-2-[(methoxycarbonyl)amino]butanoyl}-5-methylpyrrolidin-2-yl]-1,11-dihydroisochromeno[4′,3′:6,7]naphtho[1,2-d]imidazol-9-yl}-1H-imidazol-2-yl)-5-methylpyrrolidin-1-yl]-3-methyl-1-oxobutan-2-yl}carbamate] | 0.007 | < 0.1 | 9 | < 100 | 0.061 | < 0.1 | 0.019 | < 0.1 | 0.1 to 0.999 | 0.259 | 22.7 | 18 | – | – | – | – | – | – | – | –
2 | CC[C@H]1CC[C@@H](c2nc3ccc4cc5c(cc4c3[nH]2)OCc2cc(-c3cnc([C@@H]4CC[C@H](C)N4C(=O)[C@@H](NC(=O)OC)[C@@H](C)CC)[nH]3)ccc2-5)N1C(=O)[C@@H](NC(=O)OC)C1CCOCC1 [IK] | 0.042 | < 0.1 | 39 | < 100 | 0.155 | 0.1 to 0.999 | 0.015 | < 0.1 | 0.1 to 0.999 | 0.181 | 27.4 | 38 | – | – | – | – | – | – | – | –
3 | CC[C@H]1CC[C@@H](c2nc3ccc4cc5c(cc4c3[nH]2)OCc2cc(-c3cnc([C@@H]4CC[C@H](C)N4C(=O)[C@@H](NC(=O)OC)C(C)C)[nH]3)ccc2-5)N1C(=O)[C@@H](NC(=O)OC)[C@@H](C)OC [EP, Methyl {(2S,3R)-1-[(2S,5S)-2-ethyl-5-(9-{2-[(2S,5S)-1-{(2S)-[(methoxycarbonyl)amino]-3-methylbutanoyl}-5-methylpyrrolidin-2-yl]-1H-imidazol-5-yl}-1,11-dihydroisochromeno[4′,3′:6,7]naphtho[1,2-d]imidazol-2-yl)pyrrolidin-1-yl]-3-methoxy-1l-oxobutan-2-yl}carbamate] | – | – | 14 | < 100 | 0.115 | 0.1 to 0.999 | 0.013 | < 0.1 | 0.1 to 0.999 | 0.213 | 17.5 | 24 | – | – | – | – | – | – | – | –
4 | CC[C@H]1CC[C@@H](c2ncc(-c3ccc4c(c3)COc3cc5c(ccc6nc([C@@H]7CC[C@H](C)N7C(=O)[C@@H](NC(=O)OC)[C@@H](C)OC)[nH]c65)cc3-4)[nH]2)N1C(=O)[C@@H](NC(=O)OC)C1CCOCC1 [HY] | 0.017 | < 0.1 | 15 | < 100 | 0.052 | < 0.1 | 0.015 | < 0.1 | < 0.1 | 0.049 | – | 28 | 0.055 | < 0.1 | 0.031 | < 0.1 | 0.026 | < 0.1 | < 0.1 | 0.046
5 | COC[C@H]1C[C@@H](c2ncc(-c3ccc4c(c3)COc3cc5c(ccc6nc([C@@H]7C[C@H](COC)CN7C(=O)[C@H](NC(=O)OC)c7ccccc7)[nH]c65)cc3-4)[nH]2)N(C(=O)[C@H](NC(=O)OC)c2ccccc2)C1 [EY, Methyl {(1R)-2-[(2S,4S)-2-(5-{2-[(2S,4S)-1-{(2R)-2-[(methoxycarbonyl)amino]-2-phenylacetyl}-4-(methoxymethyl)pyrrolidin-2-yl]-1,11-dihydroisochromeno[4′,3′:6,7]naphtho[1,2-d]imidazol-9-yl}-1H-imidazol-2-yl)-4-(methoxymethyl)pyrrolidin-1-yl]-2-oxo-1-phenylethyl}carbamate] | 0.025 | < 0.1 | 29 | < 100 | 0.087 | < 0.1 | 0.029 | < 0.1 | < 0.1 | 0.035 | – | 49 | 0.118 | 0.1 to 0.999 | – | – | 0.008 | < 0.1 | < 0.1 | 0.057
